Source: paper PMC9088798, “An Approach to Derive Functional Peptide Inhibitors of Transcription Factor Activity” (JACS Au, 2022)

What was measured:
[1] = test system: cJun bZIP; assay: CD thermal denaturation of heterodimer with cJun bZIP; type: binding, human
Procedure: Figure 5 TBS winner peptide HingeW binds cJun preferentially over A-FosW. CD spectra (20 °C) show the binding of cJun to either (A) HingeW or (B) A-FosW. […] However, the effect is larger for HingeW, indicating a greater increase in peptide helicity. Similarly, the thermal denaturation of cJun bound to either (C) HingeW or (D) A-FosW is right-shifted from the average of the component peptide denaturation profiles. […] CD dimer exchange spectra show (E) an increase in helicity when HingeW is mixed with the A-FosW/cJun heterodimer as the HingeW exchanges with the A-FosW due to the binding preference of cJun for HingeW and (F) no shift from the average is observed when A-FosW is mixed with the HingeW/cJun heterodimer, indicating no change in dimer populations. Arrows are shown to highlight the shift from the average at 190 and 222 nm. In all experiments, the total sample peptide concentration was fixed to 10 μM, using equimolar concentrations of each component peptide to remove concentration-dependent effects. […]
(§1) µM) alongside ampicillin, kanamycin and chloramphenicol to maintain the required plasmids, and IPTG (1 mM) to induce protein expression. The library transformants were […]
however a lower stringency is used initially before selection is increased in later steps.
Colonies from this first round of selection were pooled and serially grown in liquid culture at starting OD600 of 0.05 and grown at 37°C with shaking at 200 rpm until the OD600 […]
increased to the optimum 4 µM in subsequent passages. Bacteria containing the most effective functional antagonists were expected to produce higher levels of TRE-mDHFR which provides a growth advantage, and these will dominate the culture. At each passage step, a sample of the culture was plated on LB agar (supplemented with antibiotics to maintain plasmids) to select and sequence individual colonies, and a DNA pool was also sequenced. This allows the occurrence of library members to be monitored as winner sequences are selected for. […]

[2] = target: T1, cJun/TRE DNA interaction (Homo sapiens, UniProt P05412); assay: CD TRE DNA peak shift, antagonism of cJun/TRE DNA interaction; type: biochemical; details: cJun 20 μM, TRE DNA 5 μM, DNA peak ~281 nm, Hill equation; three independent experiments, one SD; pH 7.4
T1 construct: The human cJun bZIP domain spans from Arg252 to Leu308; His-SUMO (N, cleaved yes); AS cap (two residues Ala-Ser) (N); GAP cap (three residues Gly-Ala-Pro) (C); made in house; host or cells: E. coli (pET21-His-SUMO plasmid)
T1 sequence (P05412 252-308): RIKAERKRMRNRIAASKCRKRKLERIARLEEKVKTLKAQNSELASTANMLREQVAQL
Procedure: The binding of cJun to TRE DNA can be observed by monitoring a DNA absorbance peak in the CD spectrum centered at ∼281 nm.[44] […] The addition of cJun (20 μM) to TRE DNA (5 μM) decreases this DNA peak by 55% as the cJun engages its target TRE site and alters the DNA structure (Figure 6A). Subsequent titration of HingeW into this bound cJun/TRE DNA mixture reverses the peak shift, with the peak increasing as DNA is released.
Figure 6 HingeW antagonizes cJun/TRE DNA interaction more effectively than A-FosW. (A) CD spectra showing a shift in the TRE DNA peak at ∼281 nm upon addition of cJun, which is reversed by the titration of HingeW into the sample, as HingeW sequesters the cJun in a nonfunctional heterodimer. […] EMSA showing the (C) unbound TRE DNA band shift upon addition of cJun and the subsequent restoration of the unbound DNA band intensity upon titration of either (D) HingeW or (E) A-FosW. (F). For both CD and EMSA, data was averaged from three independent experiments and the plotted error bars indicate one standard deviation. […]
as §1
increased to the optimum 4 µM in subsequent passages. […] This allows the occurrence of library members to be monitored as winner sequences are selected for. […]

## LEQRAEELARENEELEKEAEELEQELDELQAEIEQLEERNYALRKEIEDLQKQLEKL [A-FosW, N-terminal AS and C-terminal GAP caps, 6xHis-tagged]
[1]; 222 nm thermal denaturation
  smaller initial transition of heterodimer with cJun (double transition): ~30 °C
[1]; 222 nm, 1-90 °C at 1 °C increments, total peptide 10 μM equimolar, pH 7.4, two-state model
  Tm of heterodimer with cJun: 69.9 °C
[1]; heterodimer Tm minus average of component peptide denaturation profiles, for HingeW an estimate because homodimer Tm undeterminable
  ΔTm from component average (heterodimer with cJun): 27.5 °C
[2]
  IC50: 16 ± 0.4 µM
